# Test system: 5'-biotin NRAS-G4 (RNA, G4) UGUGGGAGGGGCGGGUCUGGG
# Experiment: SPR
# Conditions: K+ 100 mM; 10 mM Tris pH 6.9, 0.005% Tween 20, 5% DMSO; Langmuir 1:1 fit
compound,measurement,value
CN(C)c1ccc(Nc2c3ccc(NC(=O)CCN4CCCC4)cc3nc3cc(NC(=O)CCN4CCCC4)ccc23)cc1,KD,79 ± 1.2 nM

# — paper PMC11623308 (2023)
